The test system of one assay is DU-145. Description: CCK-8 proliferation, DU-145. Type of assay: cell-based. The following applies: Homo sapiens, 96 hours, read-out: Inhibitory activity (IC50) on tumor cell proliferation, DU-145. The method, then:
(§1) The tumor cells used herein were cultured in a cell culture medium listed in table A1 at 37°C in an incubator with 5% CO2. Prior to experimentation, all cell lines used were correctly identified by STR profiling, and tested negative for mycoplasma contamination using a mycoplasma detection kit through routine screenings. Table A1. Tumor cells and cell culture medium used in the present disclosure
(§2) IC50 values of the compounds of the present disclosure (including the compounds in Table 1, and compounds of examples) were measured using the Meilun Cell Counting Kit-8 kit from Dalian Meilun Biotech Co., Ltd. Assay details are as follows: tumor cells were seeded in a 96-well plate at a density listed in Table A2. After 24h, 100 µL of the inoculated cells were treated with 0.5µL of the compounds of the present disclosure (including the compounds in Tables 1 and 2, and compounds of examples) at 10 different successively decreasing concentrations (starting at the highest concentration of 10µM; 5-fold serial dilutions). After the cells were treated with the compounds of the present disclosure for a period of time, the cell viability detection reagent was added to the culture medium for cell viability assessment according to the instructions provided with the CCK-8 kit. […] The growth inhibition of the compounds of the present disclosure on cells was plotted by Prism Graphpad software, and the IC50 values of the compounds of the present disclosure were calculated therefrom. […] Seeding protocol and treatment time for tumor cells

For a further assay, the system named is CCRF-CEM. Description: CCK-8 proliferation, CCRF-CEM. The following applies: Homo sapiens, CCRF-CEM; CCK-8; 96 hours; read-out: Inhibitory activity (IC50) on tumor cell proliferation, CCRF-CEM. Type of assay: cell-based, Human. Summed up:
(§3)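 Tumor cells were cultured at 37°C with 5% CO2, seeded, and after 24h treated with compounds at 10 concentrations starting at 10µM (5-fold serial dilutions).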

The subject of another assay is Jurkat. Put plainly: CCK-8 proliferation, Jurkat. The following applies: Homo sapiens, Jurkat; CCK-8; 96 hours; read-out: Inhibitory activity (IC50) on tumor cell proliferation, Jurkat. Type of assay: cell-based, Human. The procedure, abridged: as §3
Another assay relates to TMD8. Put plainly: CCK-8 proliferation, TMD8. Type of assay: cell-based. Particulars: Homo sapiens, TMD8; CCK-8; 72 hours; read-out: Inhibitory activity (IC50) on tumor cell proliferation, TMD8. The method, then: as §1, §2
For a further assay, the system named is SU-DHL-4. Description: CCK-8 proliferation, SU-DHL-4. Type of assay: cell-based. Particulars: Homo sapiens, 72 hours, read-out: Inhibitory activity (IC50) on tumor cell proliferation, SU-DHL-4. As to the method:
as §1, §2

The target in the next assay is T1, CDK9 (Homo sapiens, UniProt P50750).
T1 construct: evaluate the effects of the compounds of the present disclosure on the expression of target proteins in cells; endogenous in cells; host or cells: MDA-MB-231
T1 sequence (P50750 whole entry): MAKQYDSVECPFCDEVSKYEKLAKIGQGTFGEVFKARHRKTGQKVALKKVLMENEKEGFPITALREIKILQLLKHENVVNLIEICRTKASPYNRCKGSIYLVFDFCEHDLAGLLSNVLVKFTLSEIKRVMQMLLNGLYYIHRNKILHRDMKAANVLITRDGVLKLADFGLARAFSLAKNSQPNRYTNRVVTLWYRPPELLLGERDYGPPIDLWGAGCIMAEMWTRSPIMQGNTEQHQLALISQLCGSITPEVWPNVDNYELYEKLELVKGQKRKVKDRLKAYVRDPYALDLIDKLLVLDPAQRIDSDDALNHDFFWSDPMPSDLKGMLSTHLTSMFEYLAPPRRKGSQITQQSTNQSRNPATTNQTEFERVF
Put plainly: Western blot degradation of CDK9 (MDA-MB-231 Cell). The following applies: Table D13. Type of assay: cell-based. As to the method: Conventional Western blot assay was performed to evaluate the effects of the compounds of the present disclosure on the expression of target proteins in cells.
(1) Cell Seeding and Protein Harvesting: The selected cells were processed according to the cell seeding procedure and protein harvesting procedure in Table III-2. Table III-2 Cell Seeding and Protein Harvesting Procedures
(2) To the collected supernatant, 5X SDS sample loading buffer was added, followed by denaturation at 95°C for 5 minutes. The denatured samples were then separated by SDS-PAGE electrophoresis on a polyacrylamide gel. Proteins were transferred to a nitrocellulose membrane (0.45 µm NC membrane), blocked with blocking buffer at room temperature for 1 hour, and subjected to antibody incubation and development procedures according to the antibody manufacturer's instructions (Cell Signaling Technology).
Half-Maximal Degradation Concentration value (the drug concentration required for degrading proteins by 50%, abbreviated as DC50) reads method: comparing the grayscale values of Western blot bands from drug-treated samples with those from blank DMSO-treated controls, and identifying the drug concentration range at which the grayscale value is half that of the DMSO-treated control bands.
DC50 values can be calculated using ImageJ software to measure grayscale values of Western blot bands from drug-treated samples. The concentration-response curve is fitted to estimate the drug concentration corresponding to half the grayscale value.
Target protein remaining (%) refers to the percentage of target protein remaining in hPBMC cells after treatment with protein degrader compounds.
Calculation method for target protein remaining (%): Use ImageJ software to measure grayscale values of Western blot bands from drug (protein degrader)-treated samples. The grayscale value of drug-treated bands is divided by that of internal control protein bands, and the resulting quotient is normalized to obtain the relative percentage of remaining target protein after protein degrader treatment.
Target protein degradation rate (%) = 100% - target protein remaining (%).

The target of assay [1] is T2, human Cereblon WT GST-tagged protein (Homo sapiens, UniProt Q96SW2).
T2 construct: purchased CISBIO 64BDCRBNPEH
T2 sequence (Q96SW2 whole entry): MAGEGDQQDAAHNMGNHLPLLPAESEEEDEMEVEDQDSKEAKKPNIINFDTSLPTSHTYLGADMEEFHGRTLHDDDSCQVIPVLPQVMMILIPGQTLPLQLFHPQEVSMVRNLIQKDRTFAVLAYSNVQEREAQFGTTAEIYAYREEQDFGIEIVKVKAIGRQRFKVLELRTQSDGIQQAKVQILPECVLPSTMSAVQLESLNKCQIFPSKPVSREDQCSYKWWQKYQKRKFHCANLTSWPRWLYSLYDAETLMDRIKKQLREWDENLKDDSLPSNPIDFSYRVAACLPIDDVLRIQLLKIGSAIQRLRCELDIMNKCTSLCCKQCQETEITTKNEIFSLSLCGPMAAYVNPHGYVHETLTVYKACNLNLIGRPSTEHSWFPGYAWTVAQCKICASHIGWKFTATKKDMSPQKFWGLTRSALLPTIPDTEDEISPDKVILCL
Description: CRBN binding, HTRF (CEREBLON BINDING kit). Particulars: Table II-2, CRBN binding screening, HTRF. The procedure, abridged:
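Competitive HTRF: GST-tagged human WT Cereblon mixed with compound, Thalidomide-Re tracer and GST Eu antibody, incubated 3 h at room temperature. Signals read at 620 and 665 nm.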

For another assay, the system named is THP-1. Description: CCK-8 proliferation, THP-1. Type of assay: cell-based. Particulars: Homo sapiens, 72 hours, read-out: Inhibitory activity (IC50) on tumor cell proliferation, THP-1. As to the method: as §1, §2
The next assay has as its system BXPC-3. Description: CCK-8 proliferation, BXPC-3. Type of assay: cell-based. The following applies: Homo sapiens, 96 hours, read-out: Inhibitory activity (IC50) on tumor cell proliferation, BXPC-3. The method, then: as §1, §2
A further assay deals with MGC-803. Description: CCK-8 proliferation, MGC-803 (heads: MGC80-3, MGC803). The following applies: Homo sapiens, MGC-803; CCK-8; 72 hours; read-out: Inhibitory activity (IC50) on tumor cell proliferation, MGC80-3. Type of assay: cell-based, Human. The procedure, abridged: as §3
The test system of the next assay is H520. Description: CCK-8 proliferation, H520. Particulars: Homo sapiens, NCI-H520, 96 hours, read-out: Inhibitory activity (IC50) on tumor cell proliferation, H520. It counts as cell-based. As to the method:
as §1, §2

In the case of `O=C(NC1CCNCC1)c1[nH]ncc1NC(=O)c1c(Cl)cccc1Cl` [AT7519, reference compound], the IC50 with DU-145 was 500 to 1000 nM; with CCRF-CEM it was 500 to 1000 nM; in the assay with Jurkat it was 100 to 500 nM; in the assay with TMD8, 500 to 1000 nM; in the assay with SU-DHL-4 it was 100 to 500 nM.
As to `Cn1ncc(-c2nc(NC3CCN(Cc4ccc(C5CCC(=O)NC5=O)cc4)CC3)ncc2Cl)c1CC1CC1` (stereo not drawn) [GT-04050, 3-(4-((4-((5-chloro-4-(5-(cyclopropylmethyl)-1-methyl-1H-pyrazol-4-yl)pyrimidin-2-yl)amino)piperidin-1-yl)methyl)phenyl)piperidine-2,6-dione], the IC50 in the assay on DU-145 lay in the range of 10 to 50 nM; in the assay with Jurkat, 100 to 500 nM. Moreover, on CDK9, the “Degradation of substrate protein CDK9 (substrate protein remaining %)” value (“Degradation … (substrate protein remaining %)” for short) is reported as “A (A is defined as 0% ≤ substrate protein remaining % ≤ 80%)”.
For `Cn1ncc(-c2nc(NC3CCN(Cc4ccc(C5CCC(=O)NC5=O)c(F)c4)CC3)ncc2Cl)c1CC1CC1` (stereo not drawn) [GT-04051, 3-(4-((4-((5-chloro-4-(5-(cyclopropylmethyl)-1-methyl-1H-pyrazol-4-yl)pyrimidin-2-yl)amino)piperidin-1-yl)methyl)-2-fluorophenyl)piperidine-2,6-dione], the IC50 in the assay with DU-145 fell in the range of 100 to 500 nM; with CCRF-CEM, 500 to 1000 nM; with TMD8, 500 to 1000 nM; in the assay with SU-DHL-4, 500 to 1000 nM. Further, the “Degradation … (substrate protein remaining %)” value on CDK9 is on record as “A (A is defined as 0% ≤ substrate protein remaining % ≤ 80%)”.
As for `N#CC1(CNc2nc(-c3cc(NC4CCN(Cc5ccc(C6CCC(=O)NC6=O)cc5)CC4)ncc3Cl)cs2)CCOCC1` (stereo not drawn) [GT-04074, 4-(((4-(5-chloro-2-((1-(4-(2,6-dioxopiperidin-3-yl)benzyl)piperidin-4-yl)amino)pyridin-4-yl)thiazol-2-yl)amino)methyl)tetrahydro-2H-pyran-4-carbonitrile], at CDK9, the “Degradation … (substrate protein remaining %)” value is “A (A is defined as 0% ≤ substrate protein remaining % ≤ 80%)”.
Consider `O=C1CCC(c2ccc(CN3CCC(n4cc(NC(=O)c5coc(-c6ccnc(NCC(F)(F)F)c6)n5)c(C(F)F)n4)CC3)cc2F)C(=O)N1` (stereo not drawn) [GT-04087, N-(3-(difluoromethyl)-1-(1-(4-(2,6-dioxopiperidin-3-yl)-3-fluorobenzyl)piperidin-4-yl)-1H-pyrazol-4-yl)-2-(2-((2,2,2-trifluoroethyl)amino)pyridin-4-yl)oxazole-4-carboxamide], for which the IC50 lay in the range of 500 to 1000 nM with DU-145; 1 to 10 nM in the assay with CCRF-CEM; 10 to 50 nM in the assay on Jurkat; 50 to 100 nM in the assay with TMD8; 500 to 1000 nM in the assay with SU-DHL-4. Further, the “Degradation … (substrate protein remaining %)” value at CDK9 was “A (A is defined as 0% ≤ substrate protein remaining % ≤ 80%)”.
`O=C1CCC(c2ccc(CN3CCC(n4cc(NC(=O)c5coc(-c6ccnc(NCC(F)(F)F)c6)n5)c(C(F)F)n4)CC3)cc2)C(=O)N1` (stereo not drawn) [GT-04121, N-(3-(difluoromethyl)-1-(1-(4-(2,6-dioxopiperidin-3-yl)benzyl)piperidin-4-yl)-1H-pyrazol-4-yl)-2-(2-((2,2,2-trifluoroethyl)amino)pyridin-4-yl)oxazole-4-carboxamide]: the IC50 with DU-145 fell in the range of 100 to 500 nM; with CCRF-CEM, 10 to 50 nM; in the assay with Jurkat, 100 to 500 nM; with TMD8, 100 to 500 nM; in the assay with SU-DHL-4 it was 500 to 1000 nM. In [1] (at 0.5µM), the “Inhibition rate (%) at 0.5µM” value is recorded as “a2 (20% < a2 ≤ 30%)”. Also, the “Inhibition rate (%) at 2 µM” value in assay [1] (at 2 µM) is “a6 (60% < a6 ≤ 80%)”. In addition, the “Degradation … (substrate protein remaining %)” value at CDK9 was “A (A is defined as 0% ≤ substrate protein remaining % ≤ 80%)”.
Take `Cc1ccc(-c2c(C)noc2C)cc1N(CC1CCN(Cc2ccc(N3CCC(=O)NC3=O)c(F)c2)CC1)c1ccc(C2(C#N)CC2)cc1` [GT-04843, 1-(4-((5-(3,5-dimethylisoxazol-4-yl)-2-methylphenyl)((1-(4-(2,4-dioxotetrahydropyrimidin-1(2H)-yl)-3-fluorobenzyl)piperidin-4-yl)methyl)amino)phenyl)cyclopropane-1-carbonitrile]: the IC50 with THP-1 fell in the range of 500 to 1000 nM; in the assay with BXPC-3 it was 100 to 500 nM; in the assay on MGC-803, 100 to 500 nM; in the assay on H520, 500 to 1000 nM.
As for `Cc1ccc(-c2c(C)noc2C)cc1N(CC1CCN(Cc2ccc(N3CCC(=O)NC3=O)cc2)CC1)c1ccc(C2(C#N)CC2)cc1` [GT-04844, 1-(4-((5-(3,5-dimethylisoxazol-4-yl)-2-methylphenyl)((1-(4-(2,4-dioxotetrahydropyrimidin-1(2H)-yl)benzyl)piperidin-4-yl)methyl)amino)phenyl)cyclopropane-1-carbonitrile], the IC50 with THP-1 lay within 500 to 1000 nM; in the assay on BXPC-3, 100 to 500 nM; in the assay with MGC-803, 100 to 500 nM; in the assay on H520 it was 500 to 1000 nM.
Take `Cc1ccc(-c2c(C)noc2C)cc1N(CC1CCN(Cc2ccc(N3CCC(=O)NC3=O)cc2F)CC1)c1ccc(C2(C#N)CC2)cc1` [GT-04973, 1-(4-((5-(3,5-dimethylisoxazol-4-yl)-2-methylphenyl)((1-(4-(2,4-dioxotetrahydropyrimidin-1(2H)-yl)-2-fluorobenzyl)piperidin-4-yl)methyl)amino)phenyl)cyclopropane-1-carbonitrile]: the IC50 in the assay with THP-1 fell in the range of 500 to 1000 nM; with BXPC-3, 100 to 500 nM; in the assay with MGC-803, 500 to 1000 nM; in the assay with H520, 500 to 1000 nM.
On to `C[C@]12CC[C@H](O)CC1=CC[C@@H]1[C@@H]2CC[C@]2(C)C(c3cccnc3)=CC[C@@H]12` [abiraterone], for which the IC50 in the assay with DU-145, in the assay with THP-1, in the assay on BXPC-3, in the assay on MGC-803 and in the assay on H520 was > 10000 nM in each case.

The values above are taken from EP4678638A1, “NEW E3 UBIQUITIN LIGASE LIGAND, PROTEIN DEGRADATION AGENT AND USE THEREOF” (priority 2023, dated 2024).
